Laboratory results: patent publication US10550143B2, “C,O-spiro aryl glycoside compounds, preparation therefor and use thereof” (SHANGHAI INSTITUTE OF MATERIA MEDICA, CHINESE ACADEMY OF …, priority 2015, dated 2020)

How the values were obtained:
SD rats = assay: Acute single administration, urinary glucose changes in SD rats; format: in vivo, rat; set-up: Urine glucose concentration / The total amount of glucose excreted: unit not given here; conditions: 1 mg/kg oral, after 24 h
Method: (1) Acutely Administering Compound to Observed the Urinary Glucose Changes in SD Rats
Thirty-eight male normal SD rats were selected and randomly divided into 5 groups according to body weight and blood glucose, 6-8 in each group. […] After oral gavage, the rats were placed in rats metabolic cages, and urine was collected after 24 h, and the urine volume was recorded, the urine sugar concentration was determined, and urinary sugar content was calculated according to the following formula. Urine content=urinary sugar concentration×urine volume
Glucose levels in urine are measured by the glucose assay kit.
Data were expressed as mean±standard deviation (x±s), and Student's t test was used for statistical analysis of the data, p<0.05 was considered statistically significant.

[1] = biological target: T1, human sodium-glucose cotransporter 2 (SGLT2) (Homo sapiens, UniProt P31639); assay: In vitro SGLT2 inhibition, methyl-α-D-[U-14C]glucopyranoside uptake in NIH3T3-hSGLT2 cells; format: cell-based; conditions: for Selectivity: IC50 SGLT1/IC50 SGLT2; for inhibition at 0.01 µM: SGLT2, 10 nM, read-out: % Inhibition rate ± SD 10 nM; for inhibition at 0.1 µM: SGLT2, 100 nM, read-out: % Inhibition rate ± SD 100 nM; for IC50: read-out: IC50 ± SD SGLT2
T1 construct: expressed in transfected cells; host or cells: NIH3T3 (mouse fibroblast) cells expressing hSGLT2
T1 sequence (P31639 1-672): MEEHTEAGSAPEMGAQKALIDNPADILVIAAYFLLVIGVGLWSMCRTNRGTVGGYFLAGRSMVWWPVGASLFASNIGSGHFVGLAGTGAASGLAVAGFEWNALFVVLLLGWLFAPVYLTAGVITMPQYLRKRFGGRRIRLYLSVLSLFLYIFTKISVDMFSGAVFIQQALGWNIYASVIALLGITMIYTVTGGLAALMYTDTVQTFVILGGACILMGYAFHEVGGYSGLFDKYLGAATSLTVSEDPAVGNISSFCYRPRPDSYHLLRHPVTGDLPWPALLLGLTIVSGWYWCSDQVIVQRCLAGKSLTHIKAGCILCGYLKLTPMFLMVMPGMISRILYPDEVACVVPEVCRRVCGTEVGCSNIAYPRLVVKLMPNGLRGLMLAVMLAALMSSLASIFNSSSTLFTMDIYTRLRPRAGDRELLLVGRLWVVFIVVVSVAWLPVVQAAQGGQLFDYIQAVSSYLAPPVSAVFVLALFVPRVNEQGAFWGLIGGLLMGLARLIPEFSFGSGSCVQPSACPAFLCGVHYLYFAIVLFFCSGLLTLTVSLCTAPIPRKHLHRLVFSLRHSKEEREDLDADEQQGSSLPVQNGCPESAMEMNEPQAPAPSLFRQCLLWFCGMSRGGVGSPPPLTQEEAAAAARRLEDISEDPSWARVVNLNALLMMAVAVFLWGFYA
Procedure, shortened: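 NIH3T3-hSGLT2 cells (40000/well, gelatin-coated, 2 mM sodium butyrate the next day) were preincubated 30 min in KRH-Na+, then given compound plus uptake buffer with methyl-α-D-[U-14C]glucopyranoside and ⅙ mM methyl-α-D-glucopyranoside. Uptake was read by scintillation counting, with KRH-acetylcholine as background.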

hSGLT1 = biological target: T2, hSGLT1 (Homo sapiens, UniProt P13866); assay: In vitro SGLT1 inhibition (hSGLT1 IC50 test); format: cell-based; conditions: read-out: IC50 ± SD SGLT1
T2 sequence (P13866 1-664): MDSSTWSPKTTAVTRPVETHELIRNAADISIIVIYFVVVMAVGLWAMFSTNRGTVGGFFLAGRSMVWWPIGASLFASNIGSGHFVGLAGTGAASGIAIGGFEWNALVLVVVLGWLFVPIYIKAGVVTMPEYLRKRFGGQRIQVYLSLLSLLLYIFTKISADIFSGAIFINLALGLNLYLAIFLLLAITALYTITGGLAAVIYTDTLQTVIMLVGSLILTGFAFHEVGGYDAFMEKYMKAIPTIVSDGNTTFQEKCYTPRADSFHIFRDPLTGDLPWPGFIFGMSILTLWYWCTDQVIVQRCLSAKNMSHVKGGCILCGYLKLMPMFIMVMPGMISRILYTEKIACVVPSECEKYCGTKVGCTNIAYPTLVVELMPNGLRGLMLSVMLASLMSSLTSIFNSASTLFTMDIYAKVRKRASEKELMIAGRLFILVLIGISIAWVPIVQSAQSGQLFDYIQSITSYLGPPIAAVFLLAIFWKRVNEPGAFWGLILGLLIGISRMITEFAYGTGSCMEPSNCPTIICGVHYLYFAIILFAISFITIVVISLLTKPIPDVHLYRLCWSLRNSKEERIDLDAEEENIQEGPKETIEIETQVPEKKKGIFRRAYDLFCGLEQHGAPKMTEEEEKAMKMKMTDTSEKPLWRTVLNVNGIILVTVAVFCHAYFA

C[C@H]1O[C@]2(OCc3cc(Cl)c(Cc4ccc(-c5ccc(F)cc5)s4)cc32)[C@H](O)[C@@H](O)[C@@H]1O [Example A31]
The total amount of glucose excreted (SD rats; Table 3): 9.41 ± 6.18
Urine glucose concentration (SD rats; Table 3): 1.50 ± 0.60
Urine volume (SD rats; Table 3, in mL): 33.13 ± 9.99
Selectivity [1]: 19483
inhibition at 0.01 µM [1]: 67.5 ± 5.7%
inhibition at 0.1 µM [1]: 91.5 ± 11.7%
IC50 [1]: 3.6 ± 0.7 nM
IC50 (hSGLT1): 70100 ± 7900 nM

CCc1ccc(Cc2cc3c(cc2F)CO[C@]32O[C@H](C)[C@@H](O)[C@H](O)[C@H]2O)s1 [Example A42, (1S,3′R,4′S,5′S,6′R)-6′-methyl-6-((5-ethylthienyl)-2-methyl)-5-fluoro-3′,4′,5′,6′-tetrahydro-3H-spiro[isobenzofuran-1,2′-pyran]-3′,4′,5′-triol]
The total amount of glucose excreted (SD rats; Table 4): 2.56 ± 2.37
Urine glucose concentration (SD rats; Table 4): 0.82 ± 0.73
Urine volume (SD rats; Table 4, in mL): 18.5 ± 3.51
Selectivity [1]: 988
inhibition at 0.01 µM [1]: 62.4 ± 11.8%
inhibition at 0.1 µM [1]: 104 ± 2.8%
IC50 [1]: 26.7 ± 2 nM
IC50 (hSGLT1): 25900 ± 4290 nM

CCc1ccc(Cc2cc3c(cc2C)CO[C@]32O[C@H](C)[C@@H](O)[C@H](O)[C@H]2O)s1 [Example A57, (1S,3′R,4′S,5′S,6′R)-5,6′-dimethyl-6-((5-ethylthienzyl)-2-methyl)-3′,4′,5′,6′-tetrahydro-3H-spiro[isobenzofuran-1,2′-pyran]-3′,4′,5′-triol]
The total amount of glucose excreted (SD rats; Table 4): 786.39 ± 96.43
Urine glucose concentration (SD rats; Table 4): 232.39 ± 50.5
Urine volume (SD rats; Table 4, in mL): 19.17 ± 2.71
inhibition at 0.01 µM [1]: 31.1 ± 7.4%
inhibition at 0.1 µM [1]: 95.4 ± 2.8%
IC50 [1]: 8.4 ± 0.7 nM
IC50 (hSGLT1): 1930 ± 160 nM

CC(O)c1ccc(Cc2cc3c(cc2Cl)CO[C@]32O[C@H](C)[C@@H](O)[C@H](O)[C@H]2O)s1 (stereo partly drawn) [Example A118, (1S,3′R,4′S,5′S,6′R)-5-chloro-6-((5-(1-hydroxyethyl)thiophene-2-yl)methyl)-6′-methyl-3′,4′,5′,6′-tetrahydro-3H-spiro[isobenzofuran-1,2′-pyran]-3′,4′,5′-triol]
Selectivity [1]: 166
inhibition at 0.01 µM [1]: 22.1 ± 3%
inhibition at 0.1 µM [1]: 91.8 ± 3.5%
IC50 [1]: 43.4 ± 12.9 nM
IC50 (hSGLT1): 7200 ± 600 nM

C[C@H]1O[C@]2(OCc3cc(Cl)c(Cc4ccc(CCO)s4)cc32)[C@H](O)[C@@H](O)[C@@H]1O [Example A119, (1S,3′R,4′S,5′S,6′R)-5-chloro-6-((5-(2-hydroxyethyl)thiophene-2-yl)methyl)-6′-methyl-3′,4′,5′,6′-tetrahydro-3H-spiro[isobenzofuran-1,2′-pyran]-3′,4′,5′-triol]
Selectivity [1]: 167
inhibition at 0.01 µM [1]: 22 ± 3.1%
inhibition at 0.1 µM [1]: 80 ± 2.7%
IC50 [1]: 3.6 ± 0.8 nM
IC50 (hSGLT1): 600 ± 80 nM
